From paper PMC12845078 (Pharmaceuticals, 2025)
Like-named read-outs stand apart in the source and are kept apart here.

Columns and labels:
[1] = Plasma protein binding (rapid equilibrium dialysis), dog; details: beagle
Experimental: (§3) After incubation for 20 min, a portion of the whole blood was centrifuged at 2500× g for 10 min at 4 °C to separate plasma; another portion of the whole blood was subjected to three cycles of freeze–thawing and ultrasonicated for 10 min to disrupt cells. Equal volumes of plasma and whole blood samples were added to the whole blood and plasma specimens, respectively, followed by protein precipitation with acetonitrile containing an internal standard (IS). […] The RED inserts were placed in the matching incubation plate: 200 µL of drug-containing matrix were added to the sample chamber, and 400 µL of PBS buffer (pH: 7.4) were added to the buffer chamber. After incubation in a constant-temperature shaking incubator for 6 h (37 °C), samples from the sample chamber and buffer chamber were diluted 1:1 with PBS or matrix, respectively, and proteins were precipitated with acetonitrile containing IS.

[2] = Liver microsome protein binding, dog; type: in vitro ADME; details: beagle, liver microsomes, pH 7.4
Experimental: as §3

[3] = Liver microsome protein binding, human; type: in vitro ADME; details: liver microsomes, pH 7.4
Experimental: as §3

[4] = Pharmacokinetics of MT, 6-HMT and CBD in SD rats (i.v. and oral); details: rat; for half-life / AUC(0-t) / AUC(0-inf) / Cmax / MRT last / Tmax: Sprague-Dawley; for half-life: in vivo, t1/2, rats; for AUC(0-t) / AUC(0-inf) / Cmax / MRT last / Tmax: plasma; for MRT last: MRT(0–t)
Experimental: The drugs were dissolved in the same manner as described previously, with an administration volume of 5 mL/kg for all groups. Blood samples were collected at the time points of pre-administration and 0.033 (only for the intravenous administration group), 0.083, 0.25, 0.5, 0.75, 1, 1.5, 2, 4, 6, 8, and 12 h post-administration.
(§1) The column temperature was set at 40 °C.

[5] = Brain tissue protein binding, rat; type: in vitro ADME; details: pH 7.4
Experimental: as §3

PEPT1 = molecular target: T1, PEPT1 (Homo sapiens, UniProt P46059); experiment: Uptake and uptake inhibition in MDCK/hPEPT1 cell model; type: cell-based; details: MDCK
T1 construct: host or cells: MDCK
T1 sequence (P46059 1-708): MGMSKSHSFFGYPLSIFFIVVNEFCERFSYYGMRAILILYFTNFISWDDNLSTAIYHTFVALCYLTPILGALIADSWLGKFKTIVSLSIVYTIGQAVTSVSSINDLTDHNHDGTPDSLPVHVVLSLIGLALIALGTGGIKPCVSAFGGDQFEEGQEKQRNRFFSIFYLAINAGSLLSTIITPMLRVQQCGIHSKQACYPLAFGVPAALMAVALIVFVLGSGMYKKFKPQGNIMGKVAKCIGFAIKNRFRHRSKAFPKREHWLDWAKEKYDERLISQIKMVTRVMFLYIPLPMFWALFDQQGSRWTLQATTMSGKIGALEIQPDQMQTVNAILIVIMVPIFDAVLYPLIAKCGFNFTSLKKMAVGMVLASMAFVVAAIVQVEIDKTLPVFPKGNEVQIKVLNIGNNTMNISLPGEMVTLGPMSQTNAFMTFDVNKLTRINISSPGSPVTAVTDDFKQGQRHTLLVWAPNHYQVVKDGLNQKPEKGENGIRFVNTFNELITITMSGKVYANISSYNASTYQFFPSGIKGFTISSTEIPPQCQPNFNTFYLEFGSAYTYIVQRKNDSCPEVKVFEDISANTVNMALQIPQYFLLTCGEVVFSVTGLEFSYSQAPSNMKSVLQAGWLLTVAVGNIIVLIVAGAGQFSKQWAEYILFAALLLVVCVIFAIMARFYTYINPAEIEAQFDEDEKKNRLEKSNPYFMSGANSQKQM
Experimental: MDCK-PEPT1 cells were seeded into 24-well plates at a density of approximately 5 × 10^5 cells per well. When the cell confluency reached 60–70%, the culture medium was aspirated, and the cells were rinsed twice with HBSS pre-warmed to 37 °C. […] After incubation at 37 °C for 10 min, the buffer was aspirated, and ice-cold HBSS was immediately added to terminate the reaction, followed by rinsing three times. After drying the residual liquid, 200 μL of pure water were added to each well, and the cells were lysed by repeated freezing–thawing in liquid nitrogen three times. The cell lysates were collected, and the protein content was determined by the BCA method.
Cell uptake assessment: The concentration of the analyte in cells was corrected using the protein concentration of the cell lysate in each well.(4) Conclysate=Concdrug/ConcProtein
The uptake rate (U, pmol/mg/min) of the compound was calculated following Formula (5).(5) U=Clysate/P×t where Clysate is the amount of drug in the cell lysate (ng); P is cellular protein content (mg); t is incubation time (min).
The uptake ratio of the compound was calculated following Formula (6)(6) UR=U/ UMOCK where UMOCK is the uptake rate in MOCK-MDCK cells (pmol/mg/min).
The inhibition ratio was calculated following Formula (7)(7) IR=(1−Uwith inhibitor−Umock with inhibitor/Uwithout inhibitor−Umock without inhibitor)×100%

[6] = Plasma protein binding (rapid equilibrium dialysis), rat; type: in vitro ADME
Experimental: as §3

[7] = Pharmacokinetics of MT, 6-HMT and CBD in beagles after oral administration; details: beagle
Experimental: Twelve male healthy adult beagles (weighing 10 ± 2 kg) were randomly divided into two groups. […] The drugs were dissolved in a physiological saline solution containing 5% castor oil, with an administration volume of 2 mL/kg. Blood samples were collected at the time points of pre-administration and 0.083, 0.25, 0.5, 0.75, 1, 1.5, 2, 4, 6, 8, and 12 h post-administration.
as §1

[8] = test system: CYP1A2-mediated metabolism of MT; experiment: Static DDI model prediction of CBD's impact on MT exposure, rat; details: CBD dose 5 mg
From the text: (§2) (AUC when co-administered with the inhibitor) to AUC[contr] (AUC without the inhibitor).

[9] = Plasma protein binding (rapid equilibrium dialysis), human; type: in vitro ADME; details: pH 7.4, human
Experimental: as §3

[10] = Liver microsome protein binding, rat; type: in vitro ADME; details: liver microsomes, pH 7.4
[11] = Pharmacokinetics of MT and CBD in rats after pre-administration of ABT; details: p.o. MT + CBD (5 + 20) mg/kg
Experimental: Twelve SD rats were randomly divided into two groups. Both groups were first given an intragastric administration of 1-aminobenzotriazole (ABT) at a dose of 200 mg/kg. […] The administration volume for all groups was 5 mL/kg. […] Approximately 50 μL of venous blood were collected into heparin sodium anticoagulant tubes and placed on ice. The sample processing and storage methods were the same as described previously.
Subsequently, the resultant mixture was vortexed for 1 minute and centrifuged at 4 °C for 10 min at 18,800× g. […] The lowest limit of quantification (LLOQ) was established at 2 ng/mL.
Kromasil 100-5-C8 (2.1 × 50 mm) was selected for the separation of samples. The mobile phase consisted of solvent A (water with 0.1% formic acid and 5 mM ammonium acetate) and solvent B (methanol with 0.1% formic acid). […] The column temperature was set at 40 °C. The two eluents were 0.1% formic acid and 5 mM ammonium acetate in water (A) and 0.1% formic acid in methanol (B). […] The main mass spectrometry detection parameters were: dry gas 10 L/min, heated gas 10 L/min, collision gas 270 kPa, ion source temperature 300 °C, desolvation temperature 250 °C, and heating module temperature 400 °C.
Pharmacokinetic parameters: GraphPad Prism 10.1 software was utilized to draw the curves. Noncompartmental analysis was selected to calculate the major PK parameters, including clearance (CL), volume (V), half-life (t1/2), peak concentration (Cmax), and area under the curve (AUC), using WinNonlin 8.1.

[12] = Plasma protein binding (rapid equilibrium dialysis), mouse; type: in vitro ADME; details: pH 7.4
Experimental: as §3

[13] = test system: CYP1A2-mediated metabolism of MT; experiment: Static DDI model prediction of CBD's impact on MT exposure, beagle; design: species or system beagle dog; details: CBD dose 30 mg
From the text: as §2

[14] = po, 20 mg/kg, rats, p.o., MT + CBD (20 + 20) mg/kg
[15] = po, 20 mg/kg, rats, p.o., Vehicle + CBD 20 mg/kg
[16] = male, po, 20 mg/kg, rats, p.o., MT + CBD (5 + 20) mg/kg

## C=C(C)[C@@H]1CCC(C)=C[C@H]1c1c(O)cc(CCCCC)cc1O [CBD, Cannabidiol]
[1]
  fu, p (free fraction in plasma): 0.33%
[1]; dog, plasma, pH 7.4
  fraction unbound at 6 h: 0.0033
[2]
  fraction unbound at 6 h: 0.0018
[3]
  fraction unbound at 6 h: 0.0073
[4]; po, 20 mg/kg, p.o., MT + CBD (20 + 20) mg/kg
  half-life: 2.67 h
[4]; po, 20 mg/kg, p.o., Vehicle + CBD 20 mg/kg
  half-life: 3.55 h
[4]; [14]
  AUC(0-t): 1390 ng·h/mL
  AUC(0-inf): 1410 ng·h/mL
  Cmax: 519 ng/mL
  MRT last: 2.71 h
  Tmax: 1.21 h
[4]; [15]
  AUC(0-t): 1570 ng·h/mL
  AUC(0-inf): 1590 ng·h/mL
  Cmax: 704 ng/mL
  MRT last: 3.11 h
  Tmax: 0.92 h
[4]; male, po, 20 mg/kg, p.o., MT + CBD (5 + 20) mg/kg
  half-life: 4.14 h
[4]; male, oral, parameter of CBD for static DDI model
  Cmax: 1620 nM
[4]; [16]
  AUC(0-t): 1590 ng·h/mL
  AUC(0-inf): 1610 ng·h/mL
  Cmax: 510 ng/mL
  MRT last: 3.85 h
  Tmax: 1.5 h
[4]; calculated as 0.693/(tmax/5)
  Ka (oral absorption rate): 2.31
[5]
  fraction unbound at 6 h: 0.0006
PEPT1; 500 μM CBD, 100 μM MT, 4 °C, read-out: uptake inhibition rate of MT
  inhibition at 500 µM: 2.7%
PEPT1; 500 μM CBD, 100 μM MT, 37 °C, read-out: uptake inhibition rate of MT
  inhibition at 500 µM: 79.6%
PEPT1; pH 6.3, 500 μM CBD, 100 μM Gly, pH 6.3, 37 °C, read-out: inhibition rate on the uptake of Gly via PEPT1
  inhibition at 500 µM: 46.7%
PEPT1; pH 6.3, 500 μM CBD, 100 μM UBEN, pH 6.3, 37 °C, read-out: inhibition rate on the uptake of UBEN via PEPT1
  inhibition at 500 µM: 55.8%
[6]
  fu, p (free fraction in plasma): 0.25%
[6]; plasma, pH 7.4
  fraction unbound at 6 h: 0.0025
[7]; calculated as 0.693/(tmax/5)
  Ka (oral absorption rate): 3.77
[7]; male, dog, plasma, oral
  Cmax: 1310 nM
[8]
  [I]h (estimated free concentration in liver): 0.74 nM
[9]; read-out: Plasma Protein Binding (converted)
  fraction unbound at 6 h: 0.001
[9]; read-out: fu, p (free fraction in plasma)
  fraction unbound at 6 h: 0.0001
[10]
  fraction unbound at 6 h: 0.0055
[11]
  AUC(0–t) of CBD in ABT-model rats relative to control group: approximately 1.68 fold
[12]
  fraction unbound at 6 h: 0.0029
[13]
  [I]h (estimated free concentration in liver): 1.37 nM
